# Results published in US20170291890A1 (Epizyme, Inc., priority 2014, published 2017).
# How the values were obtained:
# [1] = target: T1, KDM4A (Homo sapiens, UniProt O75164); test: KDM4A Assay (SAMDI mass spectrometry demethylase assay); type: biochemical; conditions: N-terminal His-tagged KDM4A 1-350; class symbols; read-out: 4A IC50
# T1 construct: N-terminal His-tagged KDM4A^1-350 was purchased from BPS Biosciences; His (N); purchased BPS Biosciences
# T1 sequence (O75164 1-350): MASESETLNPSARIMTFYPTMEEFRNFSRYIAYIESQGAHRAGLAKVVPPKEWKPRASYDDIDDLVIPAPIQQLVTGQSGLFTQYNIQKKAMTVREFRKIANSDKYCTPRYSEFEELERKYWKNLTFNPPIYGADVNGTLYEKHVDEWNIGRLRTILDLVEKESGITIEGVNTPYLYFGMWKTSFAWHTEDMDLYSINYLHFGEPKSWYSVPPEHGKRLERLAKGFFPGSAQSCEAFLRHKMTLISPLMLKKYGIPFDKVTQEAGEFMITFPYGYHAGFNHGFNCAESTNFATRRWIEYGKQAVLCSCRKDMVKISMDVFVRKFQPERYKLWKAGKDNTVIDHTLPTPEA
# Procedure: N-terminal His-tagged KDM4A^1-350 was purchased from BPS Biosciences. Peptides were synthesized by BioPeptide and all other reagents were purchased from Sigma-Aldrich at the highest level of purity possible. Assays were performed in a 50 μL volume in 384-well V-bottom polypropylene microplates (Greiner) at 25° C. Optimized 1× assay buffer was 50 mM HEPES (pH=8.0), 100 μM sodium ascorbate, 20 mM NaCl, 10 μM ammonium iron sulfate, 1 mM tris(2-carboxyethyl)phosphine (TCEP), 0.002% Tween-20, and 0.005% BSG. For compound screening, 35 μL of KDM4A^1-350 (final concentration, f.c.=5 nM) was added using a Multidrop Combi and preincubated with 1 μL of test compound (f.c.=10 μM) for 30 minutes and subsequently 15 μL of peptide with the following sequence NH2-ARTKQTAR(Kme2)STGGKAPRKQLA(K-Ahx-Biotin)-amide (f.c.=600 nM) and 2-oxoglutarate (f.c.=5 μM) was added by Multidrop Combi to begin the reaction. Reactions proceeded for 120 minutes and were stopped by the addition of 5 μL of formic acid (f.c.=0.5%) using a Multidrop Combi and then analyzed by SAMDI Tech Inc.
# SAMDI Tech analyzed all reactions using self-assembled monoloayer desorption/ionization technology as previously described (Gerard-Levin Z A, Scholle M D, Eisenberg A H, et al.: High-throughput screening of small molecule libraries using SAMDI mass spectrometry. ACS Comb Sci 2011; 13:347-350). Briefly, a 2 μL sample of the stopped demethylase reactions were transferred to a SAMDI array coated with 384 biotin-neutravidin spots using a 384-channel pipet station. The SAMDI arrays were incubated for 1 h in a humidified chamber, followed by washing of the surface with deionized ultra-filtered water (DIUF) and drying under nitrogen. A matrix of 30 mg/ml 2′,4′,6′-Trihydroxyacetophenone monohydrate (THAP) in acetone was applied using a TPP Mosquito 1.2 μL tip by dispensing 50 nL on each of the 384 spots on the array. SAMDI-MS was run using acquisition method ReflectorPositiveUTX. The % conversion of substrate to product was calculated using the AUC of the substrate and product peptide peaks.
# An IC50 value was determined by contacting various concentrations of a test compound with one of the KDM4A, KDM4C or KDMSC enzyme constructs and plotting a dose-response curve which associates the amount of inhibition of the enzyme relative to the concentration of the test compound. From the curve, the IC50 value (which represents the concentration of the test compound necessary to inhibit maximal enzymatic activity by 50%) was determined. Additionally, the slope of the linear range of the plotted curve, which indicates the speed with which the curve rises between the minimum and maximum, was calculated.
# [2] = target: T2, KDM4C (Homo sapiens, UniProt Q9H3R0); test: KDM4C Assay (SAMDI mass spectrometry demethylase assay); type: biochemical; conditions: N-terminal GST-tagged KDM4C 2-372; class symbols; read-out: 4C IC50
# T2 construct: N-terminal GST-tagged KDM4C^2-372 was purchased from BPS Biosciences; GST (N); purchased BPS Biosciences
# T2 sequence (Q9H3R0 2-372): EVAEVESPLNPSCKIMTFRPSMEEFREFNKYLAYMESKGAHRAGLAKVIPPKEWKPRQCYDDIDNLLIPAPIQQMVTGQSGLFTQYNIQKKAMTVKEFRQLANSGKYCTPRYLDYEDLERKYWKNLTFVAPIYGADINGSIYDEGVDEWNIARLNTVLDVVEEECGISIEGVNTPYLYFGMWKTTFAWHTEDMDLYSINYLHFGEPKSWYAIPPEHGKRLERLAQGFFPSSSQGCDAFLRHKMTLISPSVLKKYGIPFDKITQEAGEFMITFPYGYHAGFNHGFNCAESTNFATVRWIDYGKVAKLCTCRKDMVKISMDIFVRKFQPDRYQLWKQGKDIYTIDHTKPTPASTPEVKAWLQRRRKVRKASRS
# Summary of the method: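 GST-tagged KDM4C 2-372 (5 nM) preincubated 30 min with compound, then H3K9me3 biotinylated peptide (500 nM) and 2-oxoglutarate (15 μM) added in HEPES pH 8.0 with ascorbate, Fe(II), TCEP; 150 min at 25 °C, formic-acid quench. Conversion by SAMDI mass spectrometry from substrate/product peak AUC; IC50 from dose-response.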
SMILES,IC50 [1],IC50 [2]
"CN(C)CCn1ncc(-c2ccccc2)c1Nc1cnccc1C(=O)O [Compound 65, 3-((1-(2-(dimethylamino)ethyl)-4-phenyl-1H-pyrazol-5-yl)amino)isonicotinic acid]",1000 to 10000 nM,1000 to 10000 nM
"N[C@H]1CC[C@H](n2nc(-c3ccccc3)cc2Nc2cnccc2C(=O)O)CC1 [Compound 38, 3-((1-((trans)-4-aminocyclohexyl)-3-phenyl-1H-pyrazol-5-yl)amino)isonicotinic acid]",10000 to 100000 nM,10000 to 100000 nM
"O=C(O)c1ccncc1Nc1nn(C2CCOCC2)cc1-c1ccccc1 [Compound 72, 3-((4-phenyl-1-(tetrahydro-2H-pyran-4-yl)-1H-pyrazol-3-yl)amino)isonicotinic acid]",1000 to 10000 nM,1000 to 10000 nM
Cn1ncc(-c2ccccc2)c1Nc1cnccc1C(=O)O [Compound 1],100 to 1000 nM,100 to 1000 nM
"CC(C)n1nc(-c2ccccc2)cc1Nc1cnccc1C(=O)O [Compound 22, 3-((1-Isopropyl-3-phenyl-1H-pyrazol-5-yl)amino)isonicotinic acid]",100 to 1000 nM,100 to 1000 nM
"O=C(O)c1ccncc1Nc1cc(-c2ccccc2)nn1-c1ccncc1 [Compound 56, 3-((3-phenyl-1-(pyridin-4-yl)-1H-pyrazol-5-yl)amino) isonicotinic acid]",100 to 1000 nM,100 to 1000 nM
"Cc1c(-c2ccccc2)nn(C)c1Nc1cnccc1C(=O)O [Compound 53, 3-((1,4-dimethyl-3-phenyl-1H-pyrazol-5-yl)amino)isonicotinic acid]",100 to 1000 nM,100 to 1000 nM
"Cn1cc(Nc2cnccc2C(=O)O)c(-c2ccccc2)n1 [Compound 13, 3-((1-methyl-3-phenyl-1H-pyrazol-4-yl)amino) isonicotinic acid]",1000 to 10000 nM,100 to 1000 nM
"Cc1cc(Nc2cnccc2C(=O)O)nn1-c1ccccc1 [Compound 60, 3-((5-methyl-1-phenyl-1H-pyrazol-3-yl)amino)isonicotinic acid]",100 to 1000 nM,100 to 1000 nM
"CCn1nc(-c2ccccc2)cc1Nc1cnccc1C(=O)O [Compound 36, 3-((1-Ethyl-3-phenyl-1H-pyrazol-5-yl)amino)isonicotinic acid]",100 to 1000 nM,100 to 1000 nM
"COCCn1nc(-c2ccccc2)cc1Nc1cnccc1C(=O)O [Compound 27, 3-((1-(2-Methoxyethyl)-3-phenyl-1H-pyrazol-5-yl)amino) isonicotinic acid]",100 to 1000 nM,100 to 1000 nM
NCCn1nc(-c2ccccc2)cc1Nc1cnccc1C(=O)O [Compound 26],1000 to 10000 nM,1000 to 10000 nM
"Cn1nc(-c2cccc(Cl)c2)cc1Nc1cnccc1C(=O)O [Compound 25, 3-((3-(3-chlorophenyl)-1-methyl-1H-pyrazol-5-yl)amino) isonicotinic acid]",100 to 1000 nM,1000 to 10000 nM
"Cn1ncc(-c2cccc(F)c2)c1Nc1cnccc1C(=O)O [Compound 10, 3-((4-(3-Fluorophenyl)-1-methyl-1H-pyrazol-5-yl)amino) isonicotinic acid]",1000 to 10000 nM,1000 to 10000 nM
"Cc1c(-c2ccccc2)nn(CCN2CCC(F)(F)CC2)c1Nc1cnccc1C(=O)O [Compound 66, 3-((1-(2-(4,4-difluoropiperidin-1-yl)ethyl)-4-methyl-3-phenyl-1H-pyrazol-5-yl)amino)isonicotinic acid]",10000 to 100000 nM,10000 to 100000 nM
"Cn1cc(-c2ccc(F)cc2)c(Nc2cnccc2C(=O)O)n1 [Compound 7, 3-((4-(4-Fluorophenyl)-1-methyl-1H-pyrazol-3-yl)amino) isonicotinic acid]",100 to 1000 nM,100 to 1000 nM
"COC(=O)c1ccncc1Nc1cnn(C2CCN(C(C)C)CC2)c1C [Compound 103, methyl 3-((1-(1-isopropylpiperidin-4-yl)-5-methyl-1H-pyrazol-4-yl)amino)isonicotinate]",10000 to 100000 nM,10000 to 100000 nM

# Other lines, results leading:
IC50 [1],IC50 [2],SMILES
100 to 1000 nM,100 to 1000 nM,"N[C@H]1CC[C@@H](n2nc(-c3ccccc3)cc2Nc2cnccc2C(=O)O)CC1 [Compound 37, 3-((1-((cis)-4-aminocyclohexyl)-3-phenyl-1H-pyrazol-5-yl)amino)isonicotinic acid]"
100 to 1000 nM,100 to 1000 nM,"O=C(O)c1ccncc1Nc1nn(CCC(F)(F)F)cc1-c1ccncc1 [Compound 74, 3-((4-(pyridin-4-yl)-1-(3,3,3-trifluoropropyl)-1H-pyrazol-3-yl)amino)isonicotinic acid]"
100 to 1000 nM,100 to 1000 nM,"Cc1c(Nc2cnccc2C(=O)O)cnn1C1CCCN(C)CC1 (centres unmarked) [Compound 112, 3-((5-methyl-1-(1-methylazepan-4-yl)-1H-pyrazol-4-yl)amino)isonicotinic acid]"
100 to 1000 nM,100 to 1000 nM,"O=C(O)c1ccncc1Nc1cnn(CCN2CCC(F)(F)CC2)c1-c1ccccc1 [Compound 18, 3-((1-(2-(4,4-difluoropiperidin-1-yl)ethyl)-5-phenyl-1H-pyrazol-4-yl)amino)isonicotinic acid]"
1 to 100 nM,1 to 100 nM,"Cc1cn(-c2ccccc2)nc1Nc1cnccc1C(=O)O [Compound 62, 3-((4-methyl-1-phenyl-1H-pyrazol-3-yl)amino) isonicotinic acid]"
100 to 1000 nM,100 to 1000 nM,"Cc1c(Nc2cnccc2C(=O)O)cnn1C1CCN(C(=O)c2ccccc2)CC1 [Compound 98, 3-(1-(1-benzoylpiperidin-4-yl)-5-methyl-1H-pyrazol-4-ylamino) isonicotinic acid]"
100 to 1000 nM,1 to 100 nM,"Cn1ncc(-c2ccccc2F)c1Nc1cnccc1C(=O)O [Compound 12, 3-((4-(2-fluorophenyl)-1-methyl-1H-pyrazol-5-yl)amino) isonicotinic acid]"
100 to 1000 nM,100 to 1000 nM,"Cn1cc(-c2ccccc2F)c(Nc2cnccc2C(=O)O)n1 [Compound 11, 3-((4-(2-Fluorophenyl)-1-methyl-1H-pyrazol-3-yl)amino) isonicotinic acid]"
1 to 100 nM,1 to 100 nM,"CN(C)CCn1cc(-c2ccccc2)c(Nc2cnccc2C(=O)O)n1 [Compound 64, 3-((1-(2-(dimethylamino)ethyl)-4-phenyl-1H-pyrazol-3-yl)amino)isonicotinic acid]"
1 to 100 nM,100 to 1000 nM,"Cc1nn(-c2ccccc2)c(C)c1Nc1cnccc1C(=O)O [Compound 77, 3-((3,5-dimethyl-1-phenyl-1H-pyrazol-4-yl)amino)isonicotinic acid]"
1 to 100 nM,1 to 100 nM,"Cc1c(Nc2cnccc2C(=O)O)cnn1[C@H]1CC[C@@H](N)CC1 [Compound 79, 3-((1-((cis)-4-aminocyclohexyl)-5-methyl-1H-pyrazol-4-yl)amino)isonicotinic acid]"
